According to PubChem BioAssay (NCI):
“And” between values parts separate entries of the source, which are not always exact repeats. Equal entries are not always repeated.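 Exposure lasted 48 hours, with cells grown in 96-well plates and compounds tested at five concentrations. The concentration for 50% growth inhibition is given as GI50. TGI: concentration producing complete growth inhibition.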 *1 amine or outer side, *2 acyl side, *3 side chain or, on linkers, in order; H or OH if unused. Where a SMILES comes first, the peptide text is derived from it. Bridges are numbered along the chain shown (N, C = ends). [ ]: non-standard residue; d: D form. ξ: configuration not given here. X4 = CCC(C)C(N[*:1])C(O)CC(=O)O[C@H](C(=O)C(C)C(=O)[*:2])C(C)C; NMeY = CN[C@@H](Cc1ccc(O)cc1)C(=O)O; X9 = O=C([C@@H]1CC(O)CN1[*:1])[*:2]; ξNMeL = CNC(CC(C)C)C(=O)O; ξT = CC(O)C(N)C(=O)O

Key:
Test in all cases: NCI tumour cell line growth inhibition, 48 h
A498 renal = tested on: A498 renal
HCT-116 colon = tested on: HCT-116 colon
HOP-92 NSCLC = tested on: HOP-92 NSCLC
MALME-3M melanoma = tested on: MALME-3M melanoma
MDA-MB-435 = tested on: MDA-MB-435
OVCAR-4 ovarian = tested on: OVCAR-4 ovarian
RXF 393 renal = tested on: RXF 393 renal
SN12C renal = tested on: SN12C renal
SNB-19 CNS = tested on: SNB-19 CNS
MCF7 breast = tested on: MCF7 breast

O=[N+]([O-])c1cccc(-c2nc3sccn3c2-c2ccnc(NCCCNS(=O)(=O)c3ccc(F)cc3)n2)c1
GI50 (A498 renal): 1.87 µM | TGI (A498 renal): > 100 µM | GI50 (HCT-116 colon): 2.85 µM | TGI (HCT-116 colon): > 100 µM | GI50 (HOP-92 NSCLC): 1.74 µM | TGI (HOP-92 NSCLC): > 100 µM | GI50 (MALME-3M melanoma): 2 µM | TGI (MALME-3M melanoma): 6.76 µM | GI50 (MDA-MB-435): 2.55 µM | TGI (MDA-MB-435): 7.93 µM | GI50 (OVCAR-4 ovarian): 1.65 µM | TGI (OVCAR-4 ovarian): 6.55 µM | GI50 (RXF 393 renal): 6.95 µM | TGI (RXF 393 renal): > 100 µM | GI50 (SN12C renal): 2.61 µM | TGI (SN12C renal): > 100 µM | GI50 (SNB-19 CNS): 4.01 µM | TGI (SNB-19 CNS): > 100 µM

CCc1ccccc1NC(=O)CCc1nc(=S)[nH][nH]1
TGI (A498 renal): > 100 µM | TGI (HCT-116 colon): > 100 µM | TGI (HOP-92 NSCLC): > 100 µM | TGI (MALME-3M melanoma): > 100 µM | TGI (OVCAR-4 ovarian): > 100 µM | TGI (RXF 393 renal): > 100 µM | TGI (SN12C renal): > 100 µM | TGI (SNB-19 CNS): > 100 µM

N#Cc1nc(-c2cccc(Br)c2)cc(-c2ccc(Nc3nc(N4CCCCC4)nc(N4CCCCC4)n3)cc2)c1N
GI50 (HCT-116 colon): 1.55 µM | TGI (HCT-116 colon): 3.19 µM | GI50 (HOP-92 NSCLC): 1.68 µM | TGI (HOP-92 NSCLC): 3.36 µM | GI50 (MALME-3M melanoma): 1.68 µM | TGI (MALME-3M melanoma): 3.1 µM | GI50 (MCF7 breast): 1.03 µM | TGI (MCF7 breast): 54.4 µM | GI50 (MDA-MB-435): 2.35 µM | TGI (MDA-MB-435): 6.64 µM | GI50 (RXF 393 renal): 1.34 µM | TGI (RXF 393 renal): 2.99 µM | GI50 (SN12C renal): 2.82 µM | TGI (SN12C renal): > 100 µM | GI50 (SNB-19 CNS): 6.41 µM | TGI (SNB-19 CNS): > 100 µM

COc1ccccc1NC(=O)CC(=O)n1nc(C)c(N=Nc2ccccc2F)c1C
TGI (A498 renal): > 100 µM | TGI (HCT-116 colon): > 31.6 µM | TGI (HOP-92 NSCLC): > 100 µM | TGI (OVCAR-4 ovarian): > 100 µM | TGI (RXF 393 renal): > 100 µM | TGI (SN12C renal): > 100 µM | TGI (SNB-19 CNS): > 100 µM

O=C(CC(=O)Nc1ccc(Cl)cc1)NNCC(=O)Nc1nc(-c2ccccc2)cs1
TGI (HCT-116 colon): > 100 µM | TGI (OVCAR-4 ovarian): > 100 µM | TGI (RXF 393 renal): > 100 µM | TGI (SN12C renal): > 100 µM | TGI (SNB-19 CNS): > 100 µM

CCNC(=O)C(O)C1(O)CCC2[C@@H]3CCC4=CC(=O)C=C[C@]4(C)C3[C@@H](O)C[C@@]21C (stereo partly specified)
TGI (HCT-116 colon): > 100 µM | TGI (MALME-3M melanoma): > 100 µM | TGI (OVCAR-4 ovarian): > 100 µM | TGI (RXF 393 renal): > 100 µM | TGI (SN12C renal): > 100 µM | TGI (SNB-19 CNS): > 100 µM

Cc1ccccc1C(C#N)/C(=N/NC(=O)c1cc2ccccc2cc1O)C(=O)Nc1cccc(Cl)c1 (stereo unspecified)
TGI (A498 renal): > 100 µM | TGI (HCT-116 colon): > 100 µM | TGI (HOP-92 NSCLC): > 100 µM | TGI (MALME-3M melanoma): > 100 µM | TGI (OVCAR-4 ovarian): 87.7 µM | TGI (SN12C renal): > 100 µM | TGI (SNB-19 CNS): > 100 µM

COC(=O)c1nc(-c2ccc(Cl)c(Cl)c2)nc2ccccc12
TGI (A498 renal): > 73.7 µM | TGI (HCT-116 colon): > 100 µM | TGI (MALME-3M melanoma): > 100 µM | TGI (RXF 393 renal): 42.9 µM | TGI (SN12C renal): > 100 µM | TGI (SNB-19 CNS): 79.5 µM

CCC(C)C1NC(=O)C(NC(=O)C(CC(C)C)N(C)C(=O)[C@@H]2CC(O)CN2)C(C)OC(=O)[C@H](Cc2ccc(OC)cc2)N(C)C(=O)[C@@H]2CCCN2C(=O)[C@H](CC(C)C)NC(=O)C(C)C(=O)[C@H](C(C)C)OC(=O)CC1O (stereo partly specified) (H-[X9][ξNMeL][ξT][X4]LP[NMeY](Me); ester 3-C)
GI50 (A498 renal): 0.283 µM | TGI (A498 renal): 0.628 µM and 2.45 µM | TGI (HOP-92 NSCLC): 0.242 µM and 0.0658 µM | TGI (MALME-3M melanoma): 0.0989 µM and 0.139 µM | TGI (MDA-MB-435): 0.0555 µM and 0.131 µM | TGI (OVCAR-4 ovarian): 0.091 µM and 0.704 µM | TGI (RXF 393 renal): 0.0965 µM and 0.0648 µM | GI50 (SN12C renal): 0.0109 µM | TGI (SN12C renal): 0.0759 µM and 0.682 µM | TGI (SNB-19 CNS): 0.45 µM and 0.148 µM

COc1ccc2[nH]c3c(cnn4cnnc34)c2c1
TGI (HOP-92 NSCLC): > 100 µM | TGI (MALME-3M melanoma): > 100 µM | TGI (OVCAR-4 ovarian): > 100 µM | TGI (RXF 393 renal): > 100 µM | TGI (SN12C renal): > 100 µM | TGI (SNB-19 CNS): > 100 µM

C/C(=N\NC(=S)N(C)C)c1ncc[nH]1
TGI (A498 renal): 16.7 µM | TGI (HCT-116 colon): > 100 µM | TGI (HOP-92 NSCLC): 7.85 µM | TGI (MALME-3M melanoma): 21.6 µM | TGI (RXF 393 renal): > 100 µM | TGI (SN12C renal): 66.5 µM | TGI (SNB-19 CNS): > 100 µM
